Source: patent US12134663B2, “Cationic peptides for activating Lck” (Interk Peptide Therapeutics Limited, priority 2018, dated 2024)
Where no end group is shown, it is not given here. [ ]: non-standard residue; d: D form.

Experiments:
wild-type Jurkat cells [1] = assay: IL-2R alpha (CD25) expression in PMA/ionomycin stimulated Jurkat cells; assay type: cell-based, human; details: PMA and ionomycin stimulated; peptide 2.5 μM, 96 hours; cell lysates
Protocol: In brief, wild-type Jurkat cells (1×10^6 cells) were cultured in standard RPMI medium and 10% foetal calf serum as above and either not stimulated or stimulated with PMA (50 ng/ml) and ionomycin for a period of 96 hours. Cells were exposed to the test peptides (2.5 μM conc.) listed in FIG. 10 for the entire 96 hour culture period, and IL-2R alpha levels were determined in cell lysates using a standard commercial ELISA format as described above.

CD4+ T cells = assay: IL-21 production by CD4+ T cells; assay type: cell-based; details: anti-CD3 anti-CD28, 48 hr; detected in one donor only
Protocol: In brief, CD4+ T cells were isolated and cultured in the presence of anti-CD3 anti-CD28 stimulation and RSKAKNPLY-RRRRRRRRR (SEQ ID NO: 24) for 24 hr or 48 hr. At the end of culture, supernatants were assessed for IL-21 by ELISA.

[2] = tested on: isolated human CD8+ T cells; assay: IFN-γ secretion in stimulated CD8+ T cell assay; assay type: cell-based; details: anti-CD3 anti-CD28 Dynabeads, 24 hours
Protocol: The ability of Lck activating polypeptides to alter IFN-γ secretion by isolated human CD8+ T cells in a stimulated CD8+ T cell assay was examined. In brief, Isolated CD8+ T cells were stimulated with anti-CD3 anti-CD28 Dynabeads™ and cultured together with the Lck activating polypeptides RRRRRRRRR (SEQ ID NO: 6, IK00900) and RSKAKNPLY-RRRRRRRRR (SEQ ID NO: 24, IK14800) for 24 hours after which supernatants were assessed for IFN-γ by ELISA.
In brief, Isolated CD8+ T cells were stimulated with anti-CD3 anti-CD28 Dynabeads™ and cultured together with the Lck activating polypeptide RSKAKNPLY-RRRRRRRRR (SEQ ID NO: 24), comprising only D amino acids (SEQ ID NO: 129, IKD14800), for 24 hours after which supernatants were assessed for IFN-γ by ELISA.

wild-type Jurkat cells [3] = assay: IL-12 secretion in stimulated wild-type Jurkat cells (ELISA); assay type: cell-based, human; details: biotinylated anti-CD3, anti-CD28, avidin; 48 h exposure
Protocol: The ability of Lck activating polypeptides to alter IL-12 secretion was examined. In brief, wild-type Jurkat cells (an immortalised line of human T lymphocyte cells) were stimulated by exposure to biotinylated anti-CD3 antibody in the presence of anti-CD28 antibody and avidin. During the culture period (48 hours) cells were exposed to test polypeptides. Cell supernatant was assayed for IL-12 at the end of 48 hours using a standard commercially available ELISA kit as described above.
In brief, cells were seeded at 1 million cells per well (12 well plate, 2 mL volume) and stimulated with Biotin-CD3, CD28, and avidin (5:5:1.25 μg). The cells were then treated with IK14800 (SEQ ID NO: 24), IK15800 (SEQ ID NO: 58), IK14804 (SEQ ID NO: 65) and IK15804 (SEQ ID NO: 66). The cells were then incubated for 48 hours at 37° C. The supernatants (100 uL, n=3), were then analyzed for IL-12 content.
In brief, wild-type Jurkat cells (am immortalised line of human T lymphocyte cells) were stimulated by exposure to biotinylated anti-CD3 antibody in the presence of anti-CD28 antibody and avidin. Cells were seeded at 1 million cells per well (12 well plate, 2 mL volume) and stimulated with Biotin-anti-CD3, anti-CD28, and avidin (5:5:1.25 μg). Cells were treated with the test peptides and then incubated for 48 hours at 37° C. The supernatants (100 ul, n=3), were then analysed for IL-2 and IL-12 content. […]

[4] = tested on: anti-CD3 stimulated PBMCs; assay: IL-12p70 secretion in anti-CD3 stimulated PBMCs; assay type: cell-based, human; details: 24 hours
Protocol: The ability of Lck activating polypeptides to alter IL-12 (IL-12p70) secretion was examined further. In brief, anti-CD3 stimulated PBMCs were cultured together with the Lck activating polypeptides RVKVKVVVV-RRRRRRRRR (SEQ ID NO: 58, “IK15800”), RSKAKNPLY-RRRRRRRRR (SEQ ID NO: 24, “IK14800”), and RVKVKVVVV-RRRRRRRRR (SEQ ID NO: 58) and RSKAKNPLY-RRRRRRRRR (SEQ ID NO: 24) comprising only D amino acids (SEQ ID NO: 111, “IKD15800”, and SEQ ID NO: 129, “IKD14800”, respectively), in the presence and absence of anti-CD40L blocking antibody for 24 hours. Supernatants were assessed for IL-12p70 levels by ELISA.
The ability of Lck activating polypeptides to alter IL-12 (IL-12p70) secretion was examined relative to no peptide. In brief, PBMCs were cultured together with anti-CD3 (1 ug/ml) and the Lck activating polypeptide RSKAKNPLY-RRRRRRRRR (SEQ ID NO: 24) or RVKVKVVVV-RRRRRRRRR (SEQ ID NO: 58) for 24 or 72 hours. Supernatants were assessed for IL-12p70 levels by ELISA.

[5] = tested on: isolated human CD4+ T cells; assay: IL-2 secretion from isolated stimulated CD4+ T cells; assay type: cell-based; details: anti-CD3 anti-CD28 Dynabeads, 0-1.25 μM, 24 hours; data not shown
Protocol: In brief, CD4+ and CD8+ T cells were isolated and immuno-magnetically separated from healthy human PBMCs. Levels of IL-2 were examined following anti-CD3 and anti-CD28 stimulation for 48 hours in the presence the Lck activating fusion polypeptide RSKAKNPLY-RRRRRRRRR (SEQ ID NO: 24).
The effect of Lck activating polypeptides on IL-2 secretion from CD4+ T cells in a stimulated CD4+ T cell assay was also examined. In brief, Isolated CD4+ T cells were stimulated with anti-CD3 anti-CD28 Dynabeads™ and cultured together with the Lck activating polypeptides RRRRRRRRR (SEQ ID NO: 6, “IK00900”) and RSKAKNPLY-RRRRRRRRR (SEQ ID NO: 24, “IK14800”), over a 5-concentration range plus vehicle control (0-1.25 μM) for 24 hours after which supernatants were assessed for IL-2 and IFN-γ by ELISA.

isolated CD4+ T cells = assay: IL-21R (CD360) expression in stimulated CD4+ T cell assay; assay type: cell-based, human; details: anti-CD3 anti-CD28 Dynabeads; data not shown
Protocol: The effect of Lck activating polypeptides on IL-21R (CD360) expression on CD4+ T cells in a stimulated CD4+ T cell assay was examined. In brief, Isolated CD4+ T cells were stimulated with anti-CD3 anti-CD28 Dynabeads™ and cultured together with the Lck activating polypeptides RRRRRRRRR (SEQ ID NO: 6) and RSKAKNPLY-RRRRRRRRR (SEQ ID NO: 24), after which cells were assessed for IL-21R expression by flow cytometry.

[6] = tested on: isolated human CD4+ T cells; assay: IFN-γ secretion in stimulated CD4+ T cell assay; assay type: cell-based; details: anti-CD3 anti-CD28 Dynabeads, 24 hours
Protocol: The ability of Lck activating polypeptides to alter IFN-γ secretion by isolated human CD4+ T cells in a stimulated CD4+ T cell assay was also examined. In brief, Isolated CD4+ T cells were stimulated with anti-CD3 anti-CD28 Dynabeads™ and cultured together with the Lck activating polypeptides RRRRRRRRR (SEQ ID NO: 6, IK00900) and RSKAKNPLY-RRRRRRRRR (SEQ ID NO: 24, IK14800) for 24 hours after which supernatants were assessed for IFN-γ by ELISA.
The ability of Lck activating polypeptides comprising D amino acids to alter IFN-γ secretion by isolated human CD4+ T cells in a stimulated CD4+ T cell assay was also examined. In brief, Isolated CD4+ T cells were stimulated with anti-CD3 anti-CD28 Dynabeads™ and cultured together with the Lck activating polypeptide RSKAKNPLY-RRRRRRRRR (SEQ ID NO: 24, IK14800), or the Lck activating polypeptide RSKAKNPLY-RRRRRRRRR (SEQ ID NO: 24) comprising only D amino acids (SEQ ID NO: 129, IKD14800), for 24 hours after which supernatants were assessed for IFN-γ by ELISA.

wild-type Jurkat cells [7] = assay: IL-2 secretion in stimulated wild-type Jurkat cells (ELISA); assay type: cell-based, human; details: biotinylated anti-CD3, anti-CD28, avidin; 48 h exposure
Protocol: In brief, wild-type Jurkat cells (an immortalised line of human T lymphocyte cells) were stimulated by exposure to biotinylated anti-CD3 antibody in the presence of anti-CD28 antibody and avidin. During the culture period (48 hours or 72 hours) cells were exposed to test polypeptides. Cell supernatant was assayed for IL-2 at the end of 48 or 72 hours using a standard commercially available ELISA kit as described above.
In brief, cells were seeded at 1 million cells per well (12 well plate, 2 mL volume) and stimulated with Biotin-CD3, CD28, and avidin (5:5:1.25 μg). The cells were then treated with IK14804, and then incubated for 48 hours at 37° C. The supernatant (100 uL, n=3), was then analyzed for IL-2 content.
In brief, wild-type Jurkat cells (am immortalised line of human T lymphocyte cells) were stimulated by exposure to biotinylated anti-CD3 antibody in the presence of anti-CD28 antibody and avidin. Cells were seeded at 1 million cells per well (12 well plate, 2 mL volume) and stimulated with Biotin-anti-CD3, anti-CD28, and avidin (5:5:1.25 μg). Cells were treated with the test peptides and then incubated for 48 hours at 37° C. The supernatants (100 ul, n=3), were then analysed for IL-2 and IL-12 content. During the culture period (48 hours) cells were exposed to test polypeptide RSKAKNPLYR-(2Adod)4-NH2 (SEQ ID NO: 128). Cell supernatant was assayed for IL-2 and IL-12 at the end of 48 hours using standard commercially available ELISA kit as described above.

human PBMCs = assay: IFN-γ secretion by anti-CD3 stimulated PBMCs; assay type: cell-based; details: 48 hours; data not shown
Protocol: The ability of Lck activating polypeptides to alter IFN-γ secretion by human PBMCs was examined. In brief, anti-CD3 stimulated PBMCs were cultured together with the Lck activating polypeptides RRRRRRRRR (SEQ ID NO: 6), RVKVKVVVV-RRRRRRRRR (SEQ ID NO: 58) and RSKAKNPLY-RRRRRRRRR (SEQ ID NO: 24) for 48 hours after which supernatants were collected and assessed for IFN-γ by ELISA.

Question: How did the “IL-2R alpha (CD25) expression” value (wild-type Jurkat cells [1]) turn out when “HHHHH-RSKAKNPLY-RRRRRRRRR (HHHHHRSKAKNPLYRRRRRRRRR) [IK11480]” was run?
Answer: increased

Question: With “IL-6: control in FIG. 28 showing boost to IL-21 secretion” as the substance, how does the IL-21 production (CD4+ T cells) read?
Answer: boost to IL-21 secretion

Question: RRRRRRRRR [IK00900] was tested. Which “IFN-γ secretion relative to no peptide control” value [2] did it give?
Answer: induced IFN-γ secretion

Question: And the “IL-12 secretion relative to control” value (wild-type Jurkat cells [3])?
Answer: induced IL-12 secretion

Question: And the “IL-12 (IL-12p70) secretion relative to cultures with anti-CD40L blocking antibody” value [4]?
Answer: induced IL-12 secretion

Question: And the “IL-2 secretion relative to control” value [5]?
Answer: induce IL-2 secretion

Question: And the IL-21R expression (isolated CD4+ T cells)?
Answer: do not increase IL-21R expression

Question: And the “IFN-γ secretion relative to no peptide control” value [6]?
Answer: induced IFN-γ secretion

Question: What about the “IL-2 secretion relative to control” value (wild-type Jurkat cells [7]) of the same substance?
Answer: induces IL-2 secretion

Question: And the “IFN-γ secretion relative to no peptide control” value (human PBMCs)?
Answer: induce IFN-γ secretion

Question: “RSKAKNPLY-RRRRRRRRR-HHHHHHHHHHHH (RSKAKNPLYRRRRRRRRRHHHHHHHHHHHH) [IK14820]” was tested. Which “IL-2R alpha (CD25) expression” value (wild-type Jurkat cells [1]) did it give?
Answer: increased

Question: With “RSKAKNPLY-RRRRRRRRRR (RSKAKNPLYRRRRRRRRRR) [IK14900]” as the substance, how does the “IL-2R alpha (CD25) expression” value (wild-type Jurkat cells [1]) read?
Answer: increased

Question: For “rskaknply ([dR][dS][dK][dA][dK][dN][dP][dL][dY]) [IKD94000]”, which “IL-12 secretion relative to control” value (wild-type Jurkat cells [3]) is on record?
Answer: increase IL-12 secretion
